Measurements taken from PubChem BioAssay AID2060623 (Molecular Pharmacology Branch, DTP, NCI, 2025).

Tested on: 227483-062-R1-J1-PDC complex spheroids with HUVEC/MSC, viability
Test: Anticancer human tumor 227483-062-R1-J1-PDC patient-derived pancreatic carcinoma cell line growth inhibition [CLK]
Settings: for IC50: curve of first compound; for viability, T/C: stronger effect = lower value
In short: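 Patient-derived tumor cells grown as complex spheroids with HUVEC endothelial cells and mesenchymal stem cells, treated with drug combinations. Concentrations descend in half-log steps from near clinical Cmax, or from 10 microM if Cmax unknown.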

[1] = second compound 0.0316 µM, first compound 0.0316 µM
[2] = second compound 0.0316 µM, first compound 0.1 µM
[3] = second compound 0.0316 µM, first compound 0.316 µM
[4] = second compound 0.0316 µM, first compound 1 µM
[5] = second compound 0.0316 µM, first compound 3.16 µM
[6] = second compound 0.0316 µM, first compound 10 µM
[7] = second compound 0.1 µM, first compound 0.0316 µM
[8] = second compound 0.1 µM, first compound 0.1 µM
[9] = second compound 0.1 µM, first compound 0.316 µM
[10] = second compound 0.1 µM, first compound 1 µM
[11] = second compound 0.1 µM, first compound 3.16 µM
[12] = second compound 0.1 µM, first compound 10 µM
[13] = second compound 0.316 µM, first compound 0.0316 µM
[14] = second compound 0.316 µM, first compound 0.1 µM
[15] = second compound 0.316 µM, first compound 0.316 µM
[16] = second compound 0.316 µM, first compound 1 µM
[17] = second compound 0.316 µM, first compound 3.16 µM
[18] = second compound 0.316 µM, first compound 10 µM
[19] = second compound 1 µM, first compound 0.0316 µM
[20] = second compound 1 µM, first compound 0.1 µM
[21] = second compound 1 µM, first compound 0.316 µM
[22] = second compound 1 µM, first compound 1 µM
[23] = second compound 1 µM, first compound 3.16 µM
[24] = second compound 1 µM, first compound 10 µM
[25] = second compound 3.16 µM, first compound 0.0316 µM
[26] = second compound 3.16 µM, first compound 0.1 µM
[27] = second compound 3.16 µM, first compound 0.316 µM
[28] = second compound 3.16 µM, first compound 1 µM
[29] = second compound 3.16 µM, first compound 3.16 µM
[30] = second compound 3.16 µM, first compound 10 µM
[31] = second compound 10 µM, first compound 0.0316 µM
[32] = second compound 10 µM, first compound 0.1 µM
[33] = second compound 10 µM, first compound 0.316 µM
[34] = second compound 10 µM, first compound 1 µM
[35] = second compound 10 µM, first compound 3.16 µM
[36] = second compound 10 µM, first compound 10 µM
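Also: spheroids exposed to compounds for seven days before readout.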
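For viability, T/C in this document: percent of DMSO vehicle control luminescence as 100% viability.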

## O=c1[nH]cc(F)c(=O)[nH]1 + CN1CCN(c2cc(C(=O)Nc3cc4cc(-c5cnn(C)c5)ccc4cn3)ccn2)CC1
Second compound 0.0316 µM
  IC50: 2920 nM
Second compound 0.1 µM
  IC50: 362 nM
Second compound 0.316 µM
  IC50: < 31.6 nM
Second compound 1 µM
  IC50: < 31.6 nM
Second compound 3.16 µM
  IC50: < 31.6 nM
Second compound 10 µM
  IC50: < 31.6 nM
[1]
  viability, T/C: 113%
[2]
  viability, T/C: 117%
[3]
  viability, T/C: 109%
[4]
  viability, T/C: 76.9%
[5]
  viability, T/C: 50.8%
[6]
  viability, T/C: 31.9%
[7]
  viability, T/C: 69.3%
[8]
  viability, T/C: 57.1%
[9]
  viability, T/C: 58.1%
[10]
  viability, T/C: 38.1%
[11]
  viability, T/C: 27.5%
[12]
  viability, T/C: 20.5%
[13]
  viability, T/C: 6.26%
[14]
  viability, T/C: 5.02%
[15]
  viability, T/C: 5.2%
[16]
  viability, T/C: 4.61%
[17]
  viability, T/C: 4.43%
[18]
  viability, T/C: 3.27%
[19]
  viability, T/C: 1.65%
[20]
  viability, T/C: 2.05%
[21]
  viability, T/C: 5.56%
[22]
  viability, T/C: 1.25%
[23]
  viability, T/C: 1.55%
[24]
  viability, T/C: 1.14%
[25]
  viability, T/C: 4.69%
[26]
  viability, T/C: 2.74%
[27]
  viability, T/C: 3.16%
[28]
  viability, T/C: 2.23%
[29]
  viability, T/C: 2.22%
[30]
  viability, T/C: 2.26%
[31]
  viability, T/C: 1.91%
[32]
  viability, T/C: 1.38%
[33]
  viability, T/C: 1.3%
[34]
  viability, T/C: 3.91%
[35]
  viability, T/C: 1.9%
[36]
  viability, T/C: 2.3%

## COc1cccc2c1C(=O)c1c(O)c3c(c(O)c1C2=O)CC(O)(C(=O)CO)CC3OC1CC(N)C(O)C(C)O1 (centres undefined) + CNC(=O)c1ccc(Nc2nc(OC3CCCC3)c3c(-c4ccc5nc(C)oc5c4)c[nH]c3n2)c(OC)c1
Second compound 0.0316 µM
  IC50: 277 nM
Second compound 0.1 µM
  IC50: 229 nM
Second compound 0.316 µM
  IC50: 177 nM
Second compound 1 µM
  IC50: 114 nM
Second compound 3.16 µM
  IC50: < 31.6 nM
Second compound 10 µM
  IC50: < 31.6 nM
[1]
  viability, T/C: 84.4%
[2]
  viability, T/C: 91.2%
[3]
  viability, T/C: 43.6%
[4]
  viability, T/C: 19.9%
[5]
  viability, T/C: 1.83%
[6]
  viability, T/C: 10.3%
[7]
  viability, T/C: 81.2%
[8]
  viability, T/C: 79.9%
[9]
  viability, T/C: 38.1%
[10]
  viability, T/C: 15%
[11]
  viability, T/C: 2.41%
[12]
  viability, T/C: 10.7%
[13]
  viability, T/C: 81.7%
[14]
  viability, T/C: 66.2%
[15]
  viability, T/C: 33.8%
[16]
  viability, T/C: 9.76%
[17]
  viability, T/C: 2.28%
[18]
  viability, T/C: 9.14%
[19]
  viability, T/C: 66.9%
[20]
  viability, T/C: 53.5%
[21]
  viability, T/C: 20.1%
[22]
  viability, T/C: 4.28%
[23]
  viability, T/C: 2.52%
[24]
  viability, T/C: 5.99%
[25]
  viability, T/C: 45.1%
[26]
  viability, T/C: 35.9%
[27]
  viability, T/C: 11.5%
[28]
  viability, T/C: 2.71%
[29]
  viability, T/C: 3.57%
[30]
  viability, T/C: 5.5%
[31]
  viability, T/C: 41.7%
[32]
  viability, T/C: 28.1%
[33]
  viability, T/C: 11.3%
[34]
  viability, T/C: 2.5%
[35]
  viability, T/C: 3.15%
[36]
  viability, T/C: 6.7%
